“And” between values parts separate entries of the source, which are not always exact repeats. Equal entries are not always repeated.
Tested on: STAT3 Phospho-Tyr705
Test: NanoBiT pSTAT3 cell-based immunoassay in A431 cells
Set-up: species or system human
Details: for P-STAT3 (% compared to no inhibitor) Average / P-STAT3 (% compared to no inhibitor): IL-6 10 ng/ml; for P-STAT3 (% compared to no inhibitor): replicate
Method: Prior to NanoBiT Cell-Based Immunoassay, 50,000 cells were seeded in 160 µl of complete growth media per well of a 96-well plate and incubated overnight. […] If necessary, the cell culture media were replaced with serum-free media after the cells were stably adherent on the plate and incubated overnight. To treat cells with activators or inhibitors, medium was changed to 30 µl of medium containing inhibitors. If activation of a specific pathway is needed, the cells were stimulated with 10 µl of medium containing activators. To lyse the cells, 10 µl of lysis buffer containing 0.1% digitonin diluted in 1X immunoassay buffer with protease and phosphatase inhibitors was added and the plates were mixed vigorously for 20 min. Then, 50 µl of an antibody mix containing two primary antibodies against the target protein and NanoBiT detecting antibodies (0.3 µl each per well), diluted in 1X immunoassay buffer was added to the lysates. The plates were incubated at 23 °C for 90 min, followed by the addition of 25 µl of Nano-Glo® reagent consisting of Nano-Glo® Luciferase Assay Substrate mixed with 1X immunoassay buffer. Luminescence was measured using a plate-reading luminometer.
Single dose or dose response inhibitor treatments were performed prior to activation of the pathways as follows. For IκBα, the cells were treated in 30 µl medium with IKK16 or MG132 for 60 min before the addition of 10 µl of DMEM containing appropriate concentration of TNFα. To measure phosphorylation of AKT or STAT3, the corresponding NanoBiT immunoassays were developed with MCF-7 or A431 cells, respectively, according the same scheme used to develop the IκBα assay using the primary antibodies for AKT and STAT3 described in the reagents section. […] Treatment with LY294002 was performed in 30 µl medium and cells were incubated for 60 min before the addition of 1 µM Insulin. To measure STAT3 phosphorylation, A431 cells were incubated overnight in DMEM medium without serum. […] After addition of the stimulators, the cells were incubated for additional times as follows. IκBα phosphorylation and degradation analyses required both time courses and single time points as described in figures. […] The NanoBiT immunoassay protocol was followed as described above.
All 96-well assay plates were read using a GloMax® 96 Microplate Luminometer from Promega. The instrument was set to 0.5 s integration time. In order to obtain net change of signal, the reagent background values (signal from the well containing all reagent except primary antibodies) were subtracted from the sample values. To plot and analyze the data, Microsoft Excel and GraphPad Prism® Software were used. IC50 values were determined by using a nonlinear regression fit to a sigmoidal dose response (variable slope).

For N#CC[C@H](C1CCCC1)n1cc(-c2ncnc3[nH]ccc23)cn1 [Ruxolitinib], the “IL-6-induced increase in STAT3 phosphorylation” value (A431 cells, 1 µM 1 h, IL-6 10 ng per ml 30 min) was “suppressed”, the “P-STAT3 (% compared to no inhibitor) Average” value (inhibitor 0.0190735 nM) was 95.1% and the “P-STAT3 (% compared to no inhibitor) Average” value (inhibitor 0.038147 nM) was 97.5%. The “P-STAT3 (% compared to no inhibitor) Average” value (inhibitor 0.0762939 nM) was 97.0%, the “P-STAT3 (% compared to no inhibitor) Average” value (inhibitor 0.152588 nM) was 107.8% and the “P-STAT3 (% compared to no inhibitor) Average” value (inhibitor 0.305176 nM) was 102.4%. The “P-STAT3 (% compared to no inhibitor) Average” value (inhibitor 0.610352 nM) was 97.6%, the “P-STAT3 (% compared to no inhibitor) Average” value (inhibitor 1.2207 nM) was 97.9% and the “P-STAT3 (% compared to no inhibitor) Average” value (inhibitor 2.44141 nM) was 96.4%. For the same molecule, the “P-STAT3 (% compared to no inhibitor) Average” value (inhibitor 4.88281 nM) was 89.5%, the “P-STAT3 (% compared to no inhibitor) Average” value (inhibitor 9.76562 nM) was 75.7% and the “P-STAT3 (% compared to no inhibitor) Average” value (inhibitor 19.5312 nM) was 80.7%. For the same molecule, the “P-STAT3 (% compared to no inhibitor) Average” value (inhibitor 39.0625 nM) was 62.0%, the “P-STAT3 (% compared to no inhibitor) Average” value (inhibitor 78.125 nM) was 39.8% and the “P-STAT3 (% compared to no inhibitor) Average” value (inhibitor 156.25 nM) was 26.0%. For the same molecule, the “P-STAT3 (% compared to no inhibitor) Average” value (inhibitor 312.5 nM) was 16.9%, the “P-STAT3 (% compared to no inhibitor) Average” value (inhibitor 625 nM) was 16.7% and the “P-STAT3 (% compared to no inhibitor) Average” value (inhibitor 2500 nM) was 13.8%. For the same molecule, the “P-STAT3 (% compared to no inhibitor) Average” value (inhibitor 5000 nM) was 15.3%, the “P-STAT3 (% compared to no inhibitor) Average” value (inhibitor 10000 nM) was 10.3% and the “P-STAT3 (% compared to no inhibitor) Average” value (inhibitor […]) was 12.9%. The “P-STAT3 (% compared to no inhibitor)” value (inhibitor 0.0190735 nM) was 96.2% and 96.8% and 92.2%, the “P-STAT3 (% compared to no inhibitor)” value (inhibitor 0.038147 nM) was 95.4% and 106.7% and 90.5% and the “P-STAT3 (% compared to no inhibitor)” value (inhibitor 0.0762939 nM) was 96.2% and 100.5% and 94.3%. For the same molecule, the “P-STAT3 (% compared to no inhibitor)” value (inhibitor 0.152588 nM) was 95.8% and 119.8% and 107.8%, the “P-STAT3 (% compared to no inhibitor)” value (inhibitor 0.305176 nM) was 98.2% and 103.8% and 105.3% and the “P-STAT3 (% compared to no inhibitor)” value (inhibitor 0.610352 nM) was 90.4% and 95.8% and 106.7%. The “P-STAT3 (% compared to no inhibitor)” value (inhibitor 1.2207 nM) was 97.3% and 105.4% and 90.9%, the “P-STAT3 (% compared to no inhibitor)” value (inhibitor 2.44141 nM) was 104.8% and 99.5% and 84.9% and the “P-STAT3 (% compared to no inhibitor)” value (inhibitor 4.88281 nM) was 81.2% and 88.5% and 98.7%. For the same molecule, the “P-STAT3 (% compared to no inhibitor)” value (inhibitor 9.76562 nM) was 52.6% and 91.9% and 82.5%, the “P-STAT3 (% compared to no inhibitor)” value (inhibitor 19.5312 nM) was 89.5% and 78.3% and 74.3% and the “P-STAT3 (% compared to no inhibitor)” value (inhibitor 39.0625 nM) was 59.3% and 71.3% and 55.5%. The “P-STAT3 (% compared to no inhibitor)” value (inhibitor 78.125 nM) was 39.9% and 42.8% and 36.6%, the “P-STAT3 (% compared to no inhibitor)” value (inhibitor 156.25 nM) was 30.4% and 24.5% and 23.1% and the “P-STAT3 (% compared to no inhibitor)” value (inhibitor 312.5 nM) was 16.4% and 18.5% and 15.8%. For the same molecule, the “P-STAT3 (% compared to no inhibitor)” value (inhibitor 625 nM) was 19.9% and 15.7% and 14.5%, the “P-STAT3 (% compared to no inhibitor)” value (inhibitor 2500 nM) was 12.6% and 13.9% and 14.8% and the “P-STAT3 (% compared to no inhibitor)” value (inhibitor 5000 nM) was 13.4% and 17.3% and 15.2%. For the same molecule, the “P-STAT3 (% compared to no inhibitor)” value (inhibitor 10000 nM) was 6.2% and 9.4% and 15.3%.

Reference: publication PMC6941952, “A homogeneous bioluminescent immunoassay to probe cellular signaling pathway regulation” (Communications Biology, 2020)
